Source: article PMC7326984, “Synthesis, in vitro urease inhibitory potential and molecular docking study of benzofuran-based-thiazoldinone analogues” (Scientific Reports, 2020)

Target: urease enzyme (Canavalia ensiformis, UniProt P07374)
Assay type: biochemical
Conditions: read-out: IC50 values (urease inhibition); indophenol method, pH 6.8, 30 °C, 15 min incubation, triplicate; thiourea as standard
Description: 25 µL of enzyme and 55 µL of buffer was added to 100 mM urea that were incubated with test scaffolds 5 µL (0.5 mM concentration) for 15 min at 30 °C in 96-well plates. Urea concentrations were changed from 2–24 mM to study kinetics. As described by Weatherburn the urease potential was assessed by measuring the ammonia production with using indophenol method. Concisely, 70 µL of alkali reagent (0.1% active chloride NaOCl and 0.5 w/v NaOH) and 45 µL of reagent phenol (0.005% w/v sodium nitroprusside and 1% w/v phenol) were added to each and every well plate. Using microplate reader (Molecular Device, USA) the increase in absorbance at 630 nm was measured after 50 min. Using 200 µL as final volume the reading was performed as triplicate. With help of SoftMaxPro software (Molecular Device, USA) the results (per min absorbance change) were calculated. At pH 6.8 the entire assay was performed. With the help of 100 − (ODtest well/ODcontrol) × 100 the percentage inhibition was calculated.

Sequence of urease enzyme (P07374 whole entry, looked up): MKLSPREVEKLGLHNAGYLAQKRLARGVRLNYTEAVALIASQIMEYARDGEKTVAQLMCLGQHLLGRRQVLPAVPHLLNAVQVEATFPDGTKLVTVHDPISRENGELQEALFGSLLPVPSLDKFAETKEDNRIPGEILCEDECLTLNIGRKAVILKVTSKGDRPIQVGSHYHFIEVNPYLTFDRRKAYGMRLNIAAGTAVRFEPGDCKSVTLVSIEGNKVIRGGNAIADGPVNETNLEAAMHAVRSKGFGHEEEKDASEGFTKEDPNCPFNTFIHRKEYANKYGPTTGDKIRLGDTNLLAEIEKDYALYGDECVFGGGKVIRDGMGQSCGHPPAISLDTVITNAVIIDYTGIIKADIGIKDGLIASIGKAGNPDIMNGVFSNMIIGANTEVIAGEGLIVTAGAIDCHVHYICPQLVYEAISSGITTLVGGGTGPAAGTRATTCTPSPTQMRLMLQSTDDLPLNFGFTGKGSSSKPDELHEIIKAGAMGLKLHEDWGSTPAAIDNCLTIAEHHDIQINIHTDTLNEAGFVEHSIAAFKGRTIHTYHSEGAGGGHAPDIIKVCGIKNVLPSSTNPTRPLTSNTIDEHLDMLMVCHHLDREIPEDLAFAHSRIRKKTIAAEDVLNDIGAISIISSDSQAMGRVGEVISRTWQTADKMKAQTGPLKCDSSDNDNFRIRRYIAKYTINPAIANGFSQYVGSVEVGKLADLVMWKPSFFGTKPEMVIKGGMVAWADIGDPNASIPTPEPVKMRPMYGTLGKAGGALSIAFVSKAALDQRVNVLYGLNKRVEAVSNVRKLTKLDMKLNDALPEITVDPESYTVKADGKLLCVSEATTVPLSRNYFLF

Q: With `O=C(NN1C(=O)SCC1c1ccc(Cl)cc1Cl)c1cc2c(F)cc([N+](=O)[O-])cc2o1` (stereo not shown) [Compound 8, N-(4-(2,4-dichlorophenyl)-2-oxothiazolidin-3-yl)-4-fluoro-6-nitrobenzofuran-2-carboxamide] as the compound, how does the IC50 read?
A: 2.9 ± 0.01 µM
